# Laboratory results: patent publication US6436984B1, “Melatonin derivatives and medicine containing same” (Centre National de la Recherche Scientifique (CNRS), priority 1998, dated 2002)
# Tested on: P 815 line
# Test: cell proliferation of the P 815 line (tritiated thymidine incorporation)
# Type: cell-based
# Details: P 815 cells, 7 hours incubation in RPMI medium with phenol red, tritiated thymidine added after 3 hours, radioactivity associated with the DNA
# Protocol: The biological activity of the derivative of formula I was compared with dipropylenetriamine NONOate (A), melatonin (B) and a dipropylenetriamine NONOate and melatonin (1/2) mixture (C) on the cell preparation of the cell proliferation of the P 815 line.
# The cells are incubated with the products in RPMI medium with phenol red for 7 hours. Tritiated thymidine is added after incubating for 3 hours.
# The results are shown on the curve in the single appended FIGURE, where the concentration of product (μM) is carried on the abscissa and the radioactivity associated with the DNA (cpm) is carried on the ordinate.
Structure (SMILES),IC50 [µM],"IC50 (Mus musculus, P815) [µM]"
"NCCCN(CCCN)/[N+]([O-])=N/O [dipropylenetriamine NONOate (A), dipropylenetriamine NONOate]",150,
"COc1ccc2c(c1)c(CCNC(C)=O)cn2N=O [compound of formula I, N1-nitrosomelatonin]",,280
